Measurements from ChEMBL document CHEMBL1201862, “PubChem BioAssay data set” (2004).
Active and inactive are the calls of the source.

How the values were obtained:
Beta-galactosidase = Beta-galactosidase (Escherichia coli, UniProt Q8VNN2); assay: Dose response counterscreen for EBI2 assay utilizing the enzyme, b-galactosidase.; type: functional
[1] = test system: Streptococcus sp. 'group A'; assay: growth inhibition of control SK(-) GAS strain, dose response, counter-screen for streptokinase expression inhibitor project, luminescence, kanamycin, BacTiterGlo, confirmation (AID 1900); type: functional, organism-based
Streptokinase A = target: T1, Streptokinase A (Streptococcus pyogenes serotype M1, UniProt P10520); assay: S. pyogenes streptokinase expression inhibitors, potency, dose response, plasminogen activation absorbance, OD405 (AID 1914); type: functional, Streptococcus pyogenes M1 GAS;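 further: secreted streptokinase activity via plasminogen activation per viability signal from cell pellet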
T1 sequence (P10520 whole entry): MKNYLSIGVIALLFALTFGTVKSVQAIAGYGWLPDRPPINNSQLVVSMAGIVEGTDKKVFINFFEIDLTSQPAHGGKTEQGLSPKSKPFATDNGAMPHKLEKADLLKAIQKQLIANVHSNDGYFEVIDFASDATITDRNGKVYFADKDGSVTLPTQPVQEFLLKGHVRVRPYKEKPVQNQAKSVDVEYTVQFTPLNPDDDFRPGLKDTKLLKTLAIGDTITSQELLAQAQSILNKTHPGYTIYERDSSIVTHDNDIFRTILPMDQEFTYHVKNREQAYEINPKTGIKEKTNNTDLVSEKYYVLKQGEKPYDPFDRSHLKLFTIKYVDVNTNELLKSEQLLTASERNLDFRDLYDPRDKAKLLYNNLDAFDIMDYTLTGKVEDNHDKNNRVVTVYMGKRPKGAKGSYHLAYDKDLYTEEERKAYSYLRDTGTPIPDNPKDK

[2] = target: Voltage-gated inwardly rectifying potassium channel KCNH2 (Homo sapiens, UniProt Q12809); assay: hERG protection from proarrhythmic block, potency, dose response, cell-based, thallium flux (AID 2121); type: ADME
Sequence of Voltage-gated inwardly rectifying potassium channel KCNH2 (Q12809 whole entry): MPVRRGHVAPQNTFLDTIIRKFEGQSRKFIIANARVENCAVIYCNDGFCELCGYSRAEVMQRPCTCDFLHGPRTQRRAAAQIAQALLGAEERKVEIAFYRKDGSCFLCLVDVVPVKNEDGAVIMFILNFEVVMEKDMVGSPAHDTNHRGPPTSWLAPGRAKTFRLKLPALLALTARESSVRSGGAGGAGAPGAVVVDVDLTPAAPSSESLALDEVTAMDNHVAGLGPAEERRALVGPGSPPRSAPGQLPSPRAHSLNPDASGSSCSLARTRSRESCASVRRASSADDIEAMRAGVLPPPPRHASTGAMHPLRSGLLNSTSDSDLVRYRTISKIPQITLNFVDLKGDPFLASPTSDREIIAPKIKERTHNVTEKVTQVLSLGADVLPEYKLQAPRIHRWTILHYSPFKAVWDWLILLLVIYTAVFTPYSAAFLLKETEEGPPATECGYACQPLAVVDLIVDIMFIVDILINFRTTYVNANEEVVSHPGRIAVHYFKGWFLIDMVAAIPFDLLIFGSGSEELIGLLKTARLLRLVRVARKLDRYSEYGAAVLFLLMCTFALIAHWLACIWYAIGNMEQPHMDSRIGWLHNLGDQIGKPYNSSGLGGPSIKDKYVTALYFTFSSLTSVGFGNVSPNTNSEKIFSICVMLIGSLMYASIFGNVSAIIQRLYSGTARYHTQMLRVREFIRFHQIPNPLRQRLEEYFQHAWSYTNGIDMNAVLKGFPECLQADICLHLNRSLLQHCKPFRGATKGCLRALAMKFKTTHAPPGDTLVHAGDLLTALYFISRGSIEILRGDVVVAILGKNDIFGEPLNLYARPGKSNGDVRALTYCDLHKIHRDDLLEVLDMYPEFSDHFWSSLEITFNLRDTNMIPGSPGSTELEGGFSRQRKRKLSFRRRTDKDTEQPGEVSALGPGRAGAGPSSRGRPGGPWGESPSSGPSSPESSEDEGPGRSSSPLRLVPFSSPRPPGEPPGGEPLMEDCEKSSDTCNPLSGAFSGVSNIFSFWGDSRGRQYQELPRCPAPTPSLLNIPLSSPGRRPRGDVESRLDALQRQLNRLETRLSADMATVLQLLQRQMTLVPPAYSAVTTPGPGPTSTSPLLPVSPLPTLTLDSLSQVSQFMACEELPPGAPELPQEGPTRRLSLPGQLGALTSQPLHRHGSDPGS

Streptococcus = assay: Group A Streptococcus viability loss, dose response, counter-screen for streptokinase expression inhibitor project, luminescence, BacTiterGlo (AID 1915); type: functional, organism-based; settings: read-out: EC50;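 further: potency for reduction of bacterial viability or growth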
[3] = target: Fructose-bisphosphate aldolase (Mycobacterium tuberculosis, UniProt P9WQA3); assay: Fluorescence-based biochemical high throughput dose response assay for inhibitors of the fructose-bisphosphate aldolase (FBA) of M. tuberculosis.; type: functional
Sequence of Fructose-bisphosphate aldolase (P9WQA3 whole entry): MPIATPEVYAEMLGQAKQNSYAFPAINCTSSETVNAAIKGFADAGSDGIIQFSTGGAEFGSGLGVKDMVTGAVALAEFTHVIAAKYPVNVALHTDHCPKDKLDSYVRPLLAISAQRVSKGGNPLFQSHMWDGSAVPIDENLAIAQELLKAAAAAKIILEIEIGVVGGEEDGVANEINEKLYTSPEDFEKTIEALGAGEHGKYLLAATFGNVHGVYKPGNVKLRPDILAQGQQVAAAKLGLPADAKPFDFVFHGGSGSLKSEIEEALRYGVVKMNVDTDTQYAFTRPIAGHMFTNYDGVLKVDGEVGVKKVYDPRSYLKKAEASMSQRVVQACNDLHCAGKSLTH

[4] = MDA-MB-231 cell growth inhibition, dose response, cytotoxicity control for RAD54 inhibitor project, CellTiter-Glo luminescence, cherry-pick (AID 651692); type: functional, cell-based
[5] = target: T2, DNA repair and recombination protein RAD54-like (Homo sapiens, UniProt Q92698); assay: inhibitors of human RAD54 branch migration, confirmation, biochemical, fluorescence, cherry-picked samples, dose series (AID 651657); type: functional
T2 sequence (Q92698 whole entry): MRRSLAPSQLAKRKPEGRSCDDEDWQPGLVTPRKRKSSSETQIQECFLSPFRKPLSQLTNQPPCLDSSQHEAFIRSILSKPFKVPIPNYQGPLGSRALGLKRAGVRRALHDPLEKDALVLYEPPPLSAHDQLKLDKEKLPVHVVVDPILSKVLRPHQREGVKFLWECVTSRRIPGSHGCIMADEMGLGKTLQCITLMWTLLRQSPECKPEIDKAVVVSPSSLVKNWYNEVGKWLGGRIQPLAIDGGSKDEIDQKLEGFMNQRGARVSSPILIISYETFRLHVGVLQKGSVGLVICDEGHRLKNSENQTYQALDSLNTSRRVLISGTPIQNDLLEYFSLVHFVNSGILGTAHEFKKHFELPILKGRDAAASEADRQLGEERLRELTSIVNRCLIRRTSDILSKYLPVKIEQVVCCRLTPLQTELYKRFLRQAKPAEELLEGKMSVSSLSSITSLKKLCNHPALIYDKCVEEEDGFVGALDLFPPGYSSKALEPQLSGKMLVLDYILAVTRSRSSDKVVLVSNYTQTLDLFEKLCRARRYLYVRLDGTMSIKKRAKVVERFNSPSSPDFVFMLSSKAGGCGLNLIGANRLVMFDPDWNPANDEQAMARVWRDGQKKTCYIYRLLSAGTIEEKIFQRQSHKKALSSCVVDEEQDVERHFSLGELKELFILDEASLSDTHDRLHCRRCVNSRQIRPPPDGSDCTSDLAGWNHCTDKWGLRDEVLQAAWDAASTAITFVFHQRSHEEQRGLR

A549 = assay: A549 cell toxicity, dose response, cytotoxicity control, plate reader, cherry-pick samples (AID 687028); type: functional, cell-based; settings: Homo sapiens
Beta-lactamase [6] = target: Beta-lactamase (Salmonella choleraesuis (strain SC-B67), UniProt Q5J463); assay: Epi-absorbance-based counterscreen for selective VIM-2 inhibitors: dose response biochemical high throughput screening assay to identify inhibitors of TEM-1 serine-beta-lactamase.
Sequence of Beta-lactamase (Salmonella choleraesuis (strain SC-B67), UniProt Q5J463) (Q5J463 whole entry): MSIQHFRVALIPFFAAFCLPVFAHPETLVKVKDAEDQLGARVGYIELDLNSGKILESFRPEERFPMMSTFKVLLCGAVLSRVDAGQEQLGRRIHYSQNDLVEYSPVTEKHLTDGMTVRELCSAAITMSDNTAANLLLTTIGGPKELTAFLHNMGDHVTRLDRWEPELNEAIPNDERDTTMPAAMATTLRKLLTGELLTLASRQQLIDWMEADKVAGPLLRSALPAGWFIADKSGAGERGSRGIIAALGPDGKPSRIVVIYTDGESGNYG

Beta-lactamase [7] = target: T3, Beta-lactamase (Pseudomonas aeruginosa, UniProt Q79MP6); assay: IMP-1 metallo-beta-lactamase inhibitors, dose response, selectivity assay for VIM-2 inhibitor project, biochemical, epi-absorbance (AID 1920)
T3 sequence (Q79MP6 whole entry): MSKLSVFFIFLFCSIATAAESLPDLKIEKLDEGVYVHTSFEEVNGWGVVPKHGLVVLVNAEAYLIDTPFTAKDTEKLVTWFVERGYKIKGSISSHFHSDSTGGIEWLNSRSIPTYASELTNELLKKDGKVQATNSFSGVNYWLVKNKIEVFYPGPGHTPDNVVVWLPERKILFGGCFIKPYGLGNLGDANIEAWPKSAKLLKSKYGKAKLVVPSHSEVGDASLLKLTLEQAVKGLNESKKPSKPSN

Beta-lactamase [8] = target: T3, Beta-lactamase; assay: […] counterscreen for selective VIM-2 inhibitors: dose response biochemical high throughput screening assay to identify inhibitors of IMP-1 metallo-beta-lactamase.
Aminopeptidase N = target: T4, Aminopeptidase N (Plasmodium falciparum FcB1/Columbia, UniProt O96935); assay: P. falciparum M1AAP inhibitors, biochemical, fluorogenic H-Leu-NHMec substrate, 1536-well (AID 1445); set-up: species or system Plasmodium falciparum 3D7, 3D7
T4 sequence (O96935 whole entry): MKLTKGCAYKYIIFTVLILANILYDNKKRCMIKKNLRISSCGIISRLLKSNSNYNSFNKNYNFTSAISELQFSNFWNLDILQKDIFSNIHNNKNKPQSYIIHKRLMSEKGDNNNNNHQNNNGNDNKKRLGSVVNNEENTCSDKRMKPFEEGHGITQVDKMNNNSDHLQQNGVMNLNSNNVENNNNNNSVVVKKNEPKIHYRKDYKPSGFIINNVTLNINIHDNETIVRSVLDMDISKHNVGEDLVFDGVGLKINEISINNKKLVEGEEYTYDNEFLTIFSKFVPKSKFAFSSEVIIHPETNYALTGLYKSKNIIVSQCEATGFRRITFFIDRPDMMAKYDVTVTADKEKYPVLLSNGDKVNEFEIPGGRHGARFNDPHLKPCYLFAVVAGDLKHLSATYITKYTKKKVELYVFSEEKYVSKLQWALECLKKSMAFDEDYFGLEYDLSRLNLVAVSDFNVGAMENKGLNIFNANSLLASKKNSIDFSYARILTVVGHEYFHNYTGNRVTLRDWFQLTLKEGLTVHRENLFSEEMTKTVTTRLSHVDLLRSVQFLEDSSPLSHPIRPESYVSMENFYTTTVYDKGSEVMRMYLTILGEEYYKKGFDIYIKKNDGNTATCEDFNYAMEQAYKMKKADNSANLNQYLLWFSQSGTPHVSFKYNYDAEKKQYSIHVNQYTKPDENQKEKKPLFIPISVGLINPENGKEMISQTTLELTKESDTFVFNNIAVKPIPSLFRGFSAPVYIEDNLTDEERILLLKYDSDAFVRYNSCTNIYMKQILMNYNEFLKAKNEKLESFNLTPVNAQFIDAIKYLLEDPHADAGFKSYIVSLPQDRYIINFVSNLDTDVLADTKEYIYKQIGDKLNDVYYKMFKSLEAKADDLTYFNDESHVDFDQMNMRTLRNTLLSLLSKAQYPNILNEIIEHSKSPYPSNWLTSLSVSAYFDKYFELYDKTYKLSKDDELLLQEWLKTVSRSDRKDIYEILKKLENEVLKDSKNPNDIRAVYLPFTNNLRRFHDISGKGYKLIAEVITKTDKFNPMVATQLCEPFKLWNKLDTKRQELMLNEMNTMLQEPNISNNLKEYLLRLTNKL

[9] = target: T5, Small ubiquitin-related modifier 2 (Homo sapiens, UniProt P61956); assay: SUMO2–SIM peptide binding inhibitors, dose response, selectivity assay for SUMO1 interaction inhibitor project, biochemical, fluorescence polarization, uHTS hits (AID 624385); type: functional; settings: read-out: IC50_Mean
T5 sequence (P61956 whole entry): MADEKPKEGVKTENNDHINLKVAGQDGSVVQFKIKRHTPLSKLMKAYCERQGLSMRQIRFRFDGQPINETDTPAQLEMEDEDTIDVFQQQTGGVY

[10] = target: T6, Small ubiquitin-related modifier 1 (Homo sapiens, UniProt P63165); assay: inhibitors of SUMO1 peptide binding, dose response, biochemical, fluorescence polarization, uHTS hits (AID 624382); type: functional; settings: read-out: IC50_Mean
T6 sequence (P63165 whole entry): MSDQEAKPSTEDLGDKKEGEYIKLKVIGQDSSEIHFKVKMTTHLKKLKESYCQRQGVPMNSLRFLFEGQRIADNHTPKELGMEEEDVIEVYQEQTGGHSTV

[11] = target: T5, Small ubiquitin-related modifier 2; assay: inhibitors of SUMO2 protein-protein interaction, dose response, selectivity assay for SUMO1 interaction inhibitor project, biochemical, FRET, human SUMO2, uHTS hits (AID 624384); type: functional; settings: read-out: IC50_Mean
[12] = target: T6, Small ubiquitin-related modifier 1; assay: inhibitors of SUMO1 partner interactions, dose response, biochemical, FRET (AID 624383); type: functional; settings: read-out: IC50_Mean
[13] = target: T7, Carboxy-terminal domain RNA polymerase II polypeptide A small phosphatase 1 (Homo sapiens, UniProt Q9GZU7); assay: inhibitors of CTDSP1, concentration-response testing, biochemical assay, absorbance-based, actives from ultra-high-throughput screening (AID 540297); type: functional
T7 sequence (Q9GZU7 whole entry): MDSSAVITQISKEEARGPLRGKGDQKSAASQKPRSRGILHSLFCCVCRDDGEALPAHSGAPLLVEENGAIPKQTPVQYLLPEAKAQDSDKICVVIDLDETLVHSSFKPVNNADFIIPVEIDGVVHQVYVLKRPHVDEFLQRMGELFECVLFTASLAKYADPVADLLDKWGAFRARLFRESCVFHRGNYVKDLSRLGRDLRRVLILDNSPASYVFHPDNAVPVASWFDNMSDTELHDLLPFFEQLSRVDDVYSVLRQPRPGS

[14] = target: T8, Low molecular weight phosphotyrosine protein phosphatase (Homo sapiens, UniProt P24666); type: functional; settings: read-out: IC50_Mean
T8 sequence (P24666 whole entry): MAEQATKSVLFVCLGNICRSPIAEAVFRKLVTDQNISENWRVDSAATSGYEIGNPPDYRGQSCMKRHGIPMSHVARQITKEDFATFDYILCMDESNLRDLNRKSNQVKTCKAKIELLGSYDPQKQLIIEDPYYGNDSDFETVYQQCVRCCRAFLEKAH

[15] = target: T8, Low molecular weight phosphotyrosine protein phosphatase; type: functional; settings: read-out: IC50_Mean; remark: listed apart in the source
[16] = NIH/3T3 fibroblast cytotoxicity, dose response, cytotoxicity control for T. cruzi growth inhibitor project, cell-based, cherry-pick samples, set 2 (AID 651817); type: functional; settings: NIH3T3
[17] = intracellular Trypanosoma cruzi inhibitors in host cells – cell-based, plate reader, cherry-pick samples, set 3, dose response (AID 651818); type: functional;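 further: compounds incubated with infected cells for about four days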
Large T antigen = Large T antigen (Simian virus 40, UniProt P03070); type: functional, Betapolyomavirus macacae;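 further: Confirmatory-stage PubChem screen for compounds that inhibit SV40 T antigen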
Sequence of Large T antigen (P03070 whole entry): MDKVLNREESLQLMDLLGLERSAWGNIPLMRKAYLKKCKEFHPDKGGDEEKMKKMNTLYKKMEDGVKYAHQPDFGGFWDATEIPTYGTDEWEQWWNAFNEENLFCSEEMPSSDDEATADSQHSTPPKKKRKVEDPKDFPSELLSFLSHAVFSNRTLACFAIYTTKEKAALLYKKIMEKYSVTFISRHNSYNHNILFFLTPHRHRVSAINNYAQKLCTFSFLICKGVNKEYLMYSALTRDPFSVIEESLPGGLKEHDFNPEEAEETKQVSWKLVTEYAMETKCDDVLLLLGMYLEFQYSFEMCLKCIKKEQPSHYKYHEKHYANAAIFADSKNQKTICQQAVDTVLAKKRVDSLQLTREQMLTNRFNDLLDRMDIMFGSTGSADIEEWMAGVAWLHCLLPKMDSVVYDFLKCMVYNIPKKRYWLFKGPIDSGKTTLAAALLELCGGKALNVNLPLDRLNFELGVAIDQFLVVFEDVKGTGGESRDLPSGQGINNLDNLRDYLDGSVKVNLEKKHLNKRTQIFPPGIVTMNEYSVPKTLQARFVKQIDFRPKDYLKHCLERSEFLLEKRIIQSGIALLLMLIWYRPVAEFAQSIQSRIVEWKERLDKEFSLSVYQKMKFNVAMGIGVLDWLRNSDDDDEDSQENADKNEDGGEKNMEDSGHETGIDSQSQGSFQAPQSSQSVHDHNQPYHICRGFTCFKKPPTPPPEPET

[18] = target: T9, Sentrin-specific protease 1 (Homo sapiens, UniProt Q9P0U3); assay: potency of human SENP1 inhibitors, dose response, biochemical, kinetic FRET (AID 651697); type: functional; settings: read-out: IC50_Mean
T9 sequence (Q9P0U3 whole entry, the tested form may be a part): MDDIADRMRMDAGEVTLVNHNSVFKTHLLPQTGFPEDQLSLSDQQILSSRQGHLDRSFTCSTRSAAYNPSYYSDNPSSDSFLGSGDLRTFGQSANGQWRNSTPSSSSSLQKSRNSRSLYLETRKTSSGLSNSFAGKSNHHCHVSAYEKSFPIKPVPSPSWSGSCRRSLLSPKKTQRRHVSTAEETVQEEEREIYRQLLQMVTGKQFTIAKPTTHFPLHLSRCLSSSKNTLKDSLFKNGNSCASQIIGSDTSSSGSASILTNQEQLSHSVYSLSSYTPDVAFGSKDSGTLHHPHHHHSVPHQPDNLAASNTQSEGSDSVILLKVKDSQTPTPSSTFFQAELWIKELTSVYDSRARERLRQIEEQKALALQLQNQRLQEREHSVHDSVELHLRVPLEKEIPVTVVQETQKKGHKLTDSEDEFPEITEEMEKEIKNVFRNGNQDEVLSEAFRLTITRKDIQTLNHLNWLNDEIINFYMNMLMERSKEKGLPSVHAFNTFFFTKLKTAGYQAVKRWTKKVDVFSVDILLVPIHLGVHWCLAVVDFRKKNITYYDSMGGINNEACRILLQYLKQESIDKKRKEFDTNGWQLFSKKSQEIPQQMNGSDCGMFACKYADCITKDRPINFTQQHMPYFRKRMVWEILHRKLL

[19] = target: T9, Sentrin-specific protease 1; assay: Dose response confirmation of small molecule inhibitors of the catalytic domain of the SUMO protease, SENP1 in a FRET assay.; type: functional; settings: read-out: IC50_Mean
[20] = HEp-2 cell cytotoxicity, dose response, cytotoxicity control for RSV inhibitor project, HTS (AID 2410); type: functional; settings: human respiratory syncytial virus
[21] = inhibitors of intracellular T. cruzi replication, confirmation, NIH3T3 host cells, beta-gal luminescence (AID 2044); type: functional, cell-based;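 further: intracellular parasites grown in NIH/3T3 mouse fibroblasts as host cells; luminescent beta-galactosidase reporter signal from transgenic T. cruzi replicating inside host cells; inhibitors lower the luminescence signal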
[22] = cytotoxicity toward NIH3T3 fibroblasts, dose response, counter-screen, cell-based, ATP luminescence, mouse fibroblasts (AID 2010); type: functional;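 further: cells exposed to compound for about 90 hours before reading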
[23] = target: T10, Probable nicotinate-nucleotide adenylyltransferase (Staphylococcus aureus (strain N315), UniProt P65502); type: functional, Staphylococcus aureus subsp. aureus N315;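 on IC50 Mean: confirmatory dose-response retesting of NadD inhibitor hits first found in an ultra-high-throughput screen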
T10 sequence (P65502 whole entry): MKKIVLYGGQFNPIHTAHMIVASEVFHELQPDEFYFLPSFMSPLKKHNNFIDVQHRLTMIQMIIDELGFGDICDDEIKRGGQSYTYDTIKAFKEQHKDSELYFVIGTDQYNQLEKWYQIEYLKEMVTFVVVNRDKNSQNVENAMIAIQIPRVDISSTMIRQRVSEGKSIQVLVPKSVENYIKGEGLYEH

[24] = target: T10, Probable nicotinate-nucleotide adenylyltransferase; type: functional, Staphylococcus aureus subsp. aureus N315; settings: read-out: IC50_Mean
Albumin = Albumin (Bos taurus, UniProt P02769); assay: Counterscreen for inhibitors of T-cell receptor (TCR)-CD3 interaction: Fluorescence-based biochemical high throughput dose response assay to identify inhibitors of T-cell receptor (TCR)-CD3 interaction using a TAMRA-labeled BSA probe.; type: functional

Sequence of Beta-galactosidase (Q8VNN2 whole entry): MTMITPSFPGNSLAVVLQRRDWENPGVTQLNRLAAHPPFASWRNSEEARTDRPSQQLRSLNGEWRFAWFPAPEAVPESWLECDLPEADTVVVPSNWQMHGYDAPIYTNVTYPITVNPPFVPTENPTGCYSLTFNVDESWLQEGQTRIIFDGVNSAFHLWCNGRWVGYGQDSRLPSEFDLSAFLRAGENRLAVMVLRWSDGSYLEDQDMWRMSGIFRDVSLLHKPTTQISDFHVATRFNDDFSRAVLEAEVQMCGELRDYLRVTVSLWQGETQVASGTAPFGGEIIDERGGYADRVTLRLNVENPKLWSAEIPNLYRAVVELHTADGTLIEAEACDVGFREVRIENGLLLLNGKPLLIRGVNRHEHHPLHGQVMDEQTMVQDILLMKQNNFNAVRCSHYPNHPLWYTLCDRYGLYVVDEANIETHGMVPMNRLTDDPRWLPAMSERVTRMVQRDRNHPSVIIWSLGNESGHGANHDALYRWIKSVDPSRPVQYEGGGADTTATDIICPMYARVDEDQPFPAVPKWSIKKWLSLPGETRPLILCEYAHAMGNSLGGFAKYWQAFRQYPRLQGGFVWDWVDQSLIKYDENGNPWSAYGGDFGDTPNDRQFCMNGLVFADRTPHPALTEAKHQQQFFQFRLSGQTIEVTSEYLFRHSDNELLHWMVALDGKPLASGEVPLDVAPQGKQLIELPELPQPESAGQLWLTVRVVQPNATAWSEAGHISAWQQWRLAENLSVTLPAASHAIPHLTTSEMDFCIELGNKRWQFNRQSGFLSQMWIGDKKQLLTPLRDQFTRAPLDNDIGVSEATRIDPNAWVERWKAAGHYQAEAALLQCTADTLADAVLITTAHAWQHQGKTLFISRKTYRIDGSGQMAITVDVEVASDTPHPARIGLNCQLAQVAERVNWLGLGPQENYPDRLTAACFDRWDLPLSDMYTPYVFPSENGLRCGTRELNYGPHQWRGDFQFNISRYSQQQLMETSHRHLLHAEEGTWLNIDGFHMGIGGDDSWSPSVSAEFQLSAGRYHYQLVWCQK

Cc1ccc(CNC(=O)C2CCN(S(=O)(=O)c3ccc(Br)s3)CC2)cc1
IC50 (Beta-galactosidase): > 80 µM (inactive)

Sc1nc(-c2ccccc2)cn1/N=C/c1cccc2ccccc12
EC50 [1]: 89.1 µM (active) | EC50 (Streptokinase A): > 150 µM (not active) | EC50 [2]: 700 nM (active) | EC50 (Streptococcus): > 150 µM (not active) | IC50 [3]: > 9.99 µM (inactive)

CCCCN(CC)CCNC(=O)c1cc2c(O)nc3ccc(C)cc3c2s1
AC50 [4]: 23.1 µM (active) | AC50 [5]: 100 µM (inactive)

Cc1ccc(NC(=O)c2cc(-c3cc(Cl)ccc3C)[nH]n2)cc1NS(C)(=O)=O
AC50 (A549): 23.8 µM (active)

Cc1ccc(-c2nnc(S)n2-c2ccccc2)cc1
IC50 (Beta-lactamase [6]): > 59.6 µM (inactive) | IC50 (Beta-lactamase [7]): > 59.6 µM (inactive) | IC50 (Beta-lactamase [8]): > 59.6 µM (inactive)

Nc1cccc2[nH]c(C(F)(F)F)nc12
IC50 (Aminopeptidase N): 80.8 µM (active) | IC50 [9]: 29.8 µM (inactive) | IC50 [10]: 26.8 µM (inactive) | IC50 [11]: 10.4 µM (active) | IC50 [12]: 37 µM (inactive)

O=C(NNC(=O)c1ccc2ccccc2c1)c1ccc(Cl)cc1
IC50 [13]: > 80 µM (inactive) | IC50 [14]: 54.1 µM (inactive) | IC50 [15]: 20 µM (inactive)

Cc1ccc(S(=O)(=O)Nc2ccc3c(c2)CC(=O)N([C@H](C)CO)C[C@@H](C)[C@@H](CN(C)S(=O)(=O)c2ccc(Cl)cc2)O3)cc1
AC50 [16]: 33.1 µM (active) | AC50 [17]: 1.96 µM (active)

Cc1ccc(-c2nc3ncccn3c2NC2CCCCC2)o1
IC50 (Large T antigen): 25.9 µM (active) | IC50 [18]: 19.7 µM (active) | IC50 [19]: 8.98 µM (active)

COCCn1/c(=N/C(=O)c2cc(-c3cccs3)nc3ccccc23)sc2cc(S(N)(=O)=O)ccc21
CC50 [20]: > 50 µM (active) | EC50 [21]: 2.47 µM (active) | EC50 [22]: > 60 µM (not active) | IC50 [23]: 12.4 µM (active) | IC50 [24]: 23.8 µM (active) | IC50 (Albumin): > 94.1 µM (inactive)
